Entries after “also recorded” stand apart in the source; their conditions may differ. Read-outs that look alike come from different tables or passages of the source.
How the values were obtained:
CD8 T cells = experiment: Expansion of polyclonally activated CD8 T cells with IL-2; format: cell-based, human; details: IL-2, vs DMSO/untreated
Description: For these tests, human CD4 and CD8 T cells were activated in vitro and expanded with interleukin-2 (IL-2) in the presence of DMSO (control vehicle) or HODHBt. […] Some immunotherapy strategies rely on the in vitro expansion of the own patient CD4 and CD8 T cells specific against a tumoral or a viral antigen.
To address whether SUMOylation controls STAT activation in human CD8 T cells, polyclonally activated CD8 T cells were cultured with IL-2 in the presence or absence of HODHBt and levels of phosphorylated STATs were measured by Western blot. […] Proliferation of CD8 T cells is dependent on the activation and phosphorylation of STAT5.

STAT5 = details: Bosque et al., Cell Rep. 2017; cited from earlier work
NK cells = test system: NK cells
Description: To determine if STAT SUMOylation increases Gzm B expression in NK cells, isolated human NK cells were analyzed after a 3-day incubation with either IL-2, IL-15, HODHBt, IL-2+IL-15, HODHBt+IL-2, HODHBt+IL-15, or HODHBt+IL-2+IL-15.
To further characterize the effects of STAT SUMOylation inhibition in NK cell function, primary human NK cells were isolated and cultured with IL-15 in the presence or absence of HODHBt. 48 hours later, cells were phenotyped by flow cytometry.
To characterize the induction of other proteins known to be important for the cytolytic activity of NK cells, primary human NK cells were isolated from 6 male and 6 female donors and cultured with IL-15 in the presence or absence of HODHBt. 48 hours later, levels of Granzyme A (FIG. 18A), Perforin (FIG. 18B), Granulysin (FIG. 18C), TRAIL (FIG. 18D) and Fas ligand (FASL) (FIG. 18E) were analyzed by flow cytometry.
Antibody-dependent cell-mediated cytotoxicity (ADCC) is mediated by the recognition of an antibody bound to a cell through an Fc receptor present in NK cells, mostly CD16 (FCGR3A). To address whether inhibiting STAT SUMOylation alters CD16 expression in the surface of NK cells, freshly isolated NK cells were treated with either IL-15, HODHBt or a combination of both for 48 hours and surface expression of CD16 was measured by flow cytometry.
Since IL-15 activated STATs, it was hypothesized that STATs, and in particular STAT1, was controlling expression of CXCR5 (C—X—C Motif Chemokine Receptor 5) and that inhibiting STAT SUMOylation enhances CXCR5 expression and promotes migration towards a CXCL13 (C—X—C Motif Chemokine Ligand 13) gradient. CXCL13 controls homing of lymphocytes to follicles in lymph nodes; however whether this mechanism of regulation exists in human NK cells and whether IL-15 controls expression were unknown. To address which one of the two scenarios was potentially playing a role in the presence of NK cells within the follicles, human NK cells were treated with IL-15, HODHBt or a combination of both for 48 hours. Surface expression of CXCR5 and viability were next measured by flow cytometry.
To phenotype the cells, 1×10^5 cells were stained with a viability dye (Fixable Viability Dye eFluor 450, Affymetrix, eBioscience, San Diego, CA) and the surface marker-specific mAb specific for human: PE-anti-CD25 (Caltag, Burlingame, CA) and PE-anti-CD69 (Caltag, Burlingame, CA) followed by flow cytometric analysis in a BD FACScanto II flow cytometer using the FACSDiva software (Becton Dickinson, Mountain View, CA) and analyzed using FlowJo (Tree Star Inc., Ashland, OR).

Granzyme B, TRAIL = experiment: Expression of cytotoxic molecules (Gzm B, TRAIL) in CD8 and CD4 T cells; format: cell-based, human

O=c1c2ccccc2nnn1O [HODHBt]
expansion of CD8 T cells (CD8 T cells): increased expansion; also recorded: enhanced the expansion of polyclonally activated CD8 T in 5 human donors | phosphorylation and transcriptional activity of STAT5 (STAT5): enhance phosphorylation and the transcriptional activity of STAT5 | Gzm B expression in NK cells (percentage of cells and MFI) (NK cells; 3-day incubation, with IL-2, IL-15 or both): increased Gzm B expression in NK cells treated with IL-2, IL-15 or a combination of both | surface expression of CD16 on NK cells (NK cells; 48 hours, with or without IL-15): sufficient to increase the levels of CD16 expression in NK cells independent of the presence of IL-15 | surface expression of CXCR5 on NK cells (NK cells; IL-15 in the presence of HODHBt, 48 hours): dramatically increased in the presence of HODHBt | expression of GZMB in NK cells (NK cells; combination of IL-15 and HODHBt, 48 hours): greatly increased the expression of GZMB | expression of Granzyme A, Perforin, Granulysin, TRAIL and FASL in NK cells (NK cells; combination of IL-15 and HODHBt, vs IL-15 control, 48 hours): enhanced gene expression above IL-15 control | viability / survival of NK cells (NK cells; human, 48 h): did not affect the viability of NK cells either alone or in combination with IL-15 | surface expression of CD69 and CD25 on NK cells (NK cells; in combination with IL-15, vs IL-15 alone, 48 hours): enhanced the expression of both surface markers over IL-15 alone | surface expression of CD25 on NK cells (NK cells; single agent, 48 hours): did not change the surface expression | surface expression of CD69 on NK cells (NK cells; single agent, 48 hours): did not change the surface expression of CD69 | expression of GZMB in NK cells (NK cells; single agent, vs media control, 48 hours): did not have any effect over media control | levels of Gzm B in CD8 T cells (Granzyme B, TRAIL): increased the levels of Gzm B in CD8 T cells | expression of Granzyme B in activated CD8 T cells (Granzyme B, TRAIL; cultured for three days): increased the levels of expression | expression of TRAIL in activated CD8 T cells (Granzyme B, TRAIL; cultured for three days): increased the levels of expression

— US12441693B2, “Targeting STAT sumoylation to enhance immune responses” (THE GEORGE WASHINGTON UNIVERSITY, priority 2018, dated 2025)
